Measurements published in ChEMBL document CHEMBL3758145, “Synthesis of 3-acyloxyxanthone derivatives as α-glucosidase inhibitors: A further insight into the 3-substituents' effect” (Bioorg Med Chem, 2016).

Legend:
Set-up in all cases: species or system Saccharomyces cerevisiae
[1] = Inhibition of yeast alpha-glucosidase using PNP glycoside as substrate preincubated for 30 mins followed by substrate addition measured for 60 secs by spectrophotometric analysis
[2] = Non-competitive inhibition of yeast alpha-glucosidase using PNP glycoside as substrate assessed as enzyme-substrate-inhibitor complex preincubated for 30 mins followed by substrate addition measured for 60 secs by Lineweaver-Burk plot analysis
[3] = Non-competitive inhibition of yeast alpha-glucosidase using PNP glycoside as substrate assessed as enzyme-inhibitor complex preincubated for 30 mins followed by substrate addition measured for 60 secs by Lineweaver-Burk plot analysis

With O=C(Oc1cc(O)c2c(=O)c3ccccc3oc2c1)c1ccccc1F the IC50 [1] was 31.6 µM.
O=C(Oc1cc(O)c2c(=O)c3ccccc3oc2c1)c1cccc(Br)c1 showed an IC50 [1] of 11.6 µM, a Ki [2] of 17.4 µM and a Ki [3] of 18 µM.
For O=C(Oc1cc(O)c2c(=O)c3ccccc3oc2c1)c1ccccc1, the IC50 [1] was 36.1 µM.
Compound CC(C)(C)[Si](C)(C)Oc1ccc(C(=O)Oc2cc(O)c3c(=O)c4ccccc4oc3c2)cc1 has an IC50 [1] of 10.6 µM, a Ki [2] of 12.1 µM and a Ki [3] of 13.3 µM.
For O=C(Oc1cc(O)c2c(=O)c3ccccc3oc2c1)c1cccnc1, the IC50 [1] was 42.6 µM.
For O=C(Oc1cc(O)c2c(=O)c3ccccc3oc2c1)c1ccncc1, the IC50 [1] was 23.7 µM.
In the case of O=C(Oc1cc(O)c2c(=O)c3ccccc3oc2c1)c1ccc2ccccc2c1, the IC50 [1] is reported as 30.6 µM.
O=C(Oc1cc(O)c2c(=O)c3ccccc3oc2c1)c1ccc(O)cc1 showed an IC50 [1] of 13.3 µM, a Ki [2] of 15.5 µM and a Ki [3] of 17.8 µM.
O=C(/C=C/c1ccccc1)Oc1cc(O)c2c(=O)c3ccccc3oc2c1 showed an IC50 [1] of 46.7 µM.
For COc1ccc(C(=O)Oc2cc(O)c3c(=O)c4ccccc4oc3c2)cc1, the IC50 [1] was 23.2 µM.
COc1cc(C(=O)Oc2cc(O)c3c(=O)c4ccccc4oc3c2)cc(OC)c1OC gave an IC50 [1] of 58.2 µM.
For O=C(Oc1cc(O)c2c(=O)c3ccccc3oc2c1)c1ccccn1, the IC50 [1] was 42 µM.
For CNc1ccc(C(=O)Oc2cc(O)c3c(=O)c4ccccc4oc3c2)cc1, the IC50 [1] was 19.8 µM.
Cc1ccc(C(=O)Oc2cc(O)c3c(=O)c4ccccc4oc3c2)cc1 gave an IC50 [1] of 106 µM.
For O=C(Oc1cc(O)c2c(=O)c3ccccc3oc2c1)c1ccccc1Cl, the IC50 [1] was 21.8 µM.
O=C(Oc1cc(O)c2c(=O)c3ccccc3oc2c1)c1cccc2ccccc12 gave an IC50 [1] of 21.6 µM.
Compound O=c1c2ccccc2oc2cc(O)cc(O)c12 has an IC50 [1] of 145 µM.
For OC[C@H]1NC[C@H](O)[C@@H](O)[C@@H]1O [DUVOGLUSTAT], the IC50 [1] was 40 µM.
